Data taken from paper PMC10584170, “Machine learning-based phenotypic imaging to characterise the targetable biology of Plasmodium falciparum male gametocytes for the development of transmission-blocking antimalarials” (PLOS Pathogens, 2023).
Like-named read-outs stand apart in the source and are kept apart here.

Columns and labels:
[1] = tested on: P. falciparum male gametocytes; experiment: P. falciparum Dual Gamete Formation Assay (PfDGFA), male readout (exflagellation); format: cell-based, Plasmodium falciparum NF54; settings: for Selectivity Ratio M: HepG2 Tox50 versus male IC50; for IC50: PfDGFA, 24 h incubation with gametocytes before induction, exflagellation readout, read-out: Male IC50; for HitlevelM: number of replicates with >50% inhibition in the male readout
Method in brief: (§1)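 NF54 mature gametocytes (d14), cpd 24 h 37°C hypoxic gas; trigger: xanthurenic acid ookinete medium + Cy3 anti-Pfs25, 4°C 4 min → 28°C 4 min. Male: exflagellation centres, brightfield x6. Female: Pfs25+ gametes, fluorescence, +24 h 28°C dark.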

HepG2 cells = experiment: HepG2 cytotoxicity counter-screen; settings: cytotoxic activity against HepG2 cells
[2] = tested on: P. falciparum female gametocytes; experiment: P. falciparum Dual Gamete Formation Assay (PfDGFA), female readout (Pfs25-positive female gametes); format: cell-based, Plasmodium falciparum NF54; settings: for Selectivity ratio F: HepG2 Tox50 versus female IC50; for IC50: PfDGFA, 24 h incubation with gametocytes before induction, female gamete readout, read-out: Female IC50; for HitlevelF: number of replicates with >50% inhibition in the female readout
Method in brief: as §1

[3] = Plasmodium falciparum, 2µM, 24h preincubation with gametocytes, average of replicates, read-out: Average inhibition male (%)
[4] = Plasmodium falciparum, 2µM, 24h preincubation with gametocytes, replicate R1, read-out: % inhibition male (individual replicates) R1
[5] = Plasmodium falciparum, 2µM, 24h preincubation with gametocytes, replicate R2, read-out: % inhibition male (individual replicates) R2
[6] = Plasmodium falciparum, 2µM, 24h preincubation with gametocytes, replicate R3, read-out: % inhibition male (individual replicates) R3
[7] = Plasmodium falciparum, 2µM, 24h preincubation with gametocytes, replicate R4, read-out: % inhibition male (individual replicates) R4
[8] = Plasmodium falciparum, 2µM, 24h preincubation with gametocytes, average of replicates, read-out: Average inhibition female (%)
[9] = Plasmodium falciparum, 2µM, 24h preincubation with gametocytes, replicate R1, read-out: % inhibition female (individual replicates) R1
[10] = Plasmodium falciparum, 2µM, 24h preincubation with gametocytes, replicate R2, read-out: % inhibition female (individual replicates) R2
[11] = Plasmodium falciparum, 2µM, 24h preincubation with gametocytes, replicate R3, read-out: % inhibition female (individual replicates) R3
[12] = Plasmodium falciparum, 2µM, 24h preincubation with gametocytes, replicate R4, read-out: % inhibition female (individual replicates) R4
[13] = Plasmodium falciparum, PfDGFA at 2µM, 24h preincubation with gametocytes, average of replicates, read-out: Average inhibition male (%)
[14] = Plasmodium falciparum, PfDGFA at 2µM, 24h preincubation with gametocytes, replicate R1, read-out: % inhibition male (individual replicates) R1
[15] = Plasmodium falciparum, PfDGFA at 2µM, 24h preincubation with gametocytes, replicate R2, read-out: % inhibition male (individual replicates) R2
[16] = Plasmodium falciparum, PfDGFA at 2µM, 24h preincubation with gametocytes, replicate R3, read-out: % inhibition male (individual replicates) R3
[17] = Plasmodium falciparum, PfDGFA at 2µM, 24h preincubation with gametocytes, replicate R4, read-out: % inhibition male (individual replicates) R4
[18] = Plasmodium falciparum, PfDGFA at 2µM, 24h preincubation with gametocytes, average of replicates, read-out: Average inhibition female (%)
[19] = Plasmodium falciparum, PfDGFA at 2µM, 24h preincubation with gametocytes, replicate R1, read-out: % inhibition female (individual replicates) R1
[20] = Plasmodium falciparum, PfDGFA at 2µM, 24h preincubation with gametocytes, replicate R2, read-out: % inhibition female (individual replicates) R2
[21] = Plasmodium falciparum, PfDGFA at 2µM, 24h preincubation with gametocytes, replicate R3, read-out: % inhibition female (individual replicates) R3
[22] = Plasmodium falciparum, PfDGFA at 2µM, 24h preincubation with gametocytes, replicate R4, read-out: % inhibition female (individual replicates) R4
[23] = 2µM, 24h preincubation with gametocytes, average of replicates
[24] = 2µM, 24h preincubation with gametocytes, replicate R1
[25] = 2µM, 24h preincubation with gametocytes, replicate R3
[26] = 2µM, 24h preincubation with gametocytes, replicate R4
[27] = PfDGFA at 2µM, 24h preincubation with gametocytes, average of replicates
[28] = PfDGFA at 2µM, 24h preincubation with gametocytes, replicate R1
[29] = PfDGFA at 2µM, 24h preincubation with gametocytes, replicate R3
[30] = PfDGFA at 2µM, 24h preincubation with gametocytes, replicate R4

Structure (SMILES)	Selectivity Ratio M [1]	IC50 ([1]; Plasmodium falciparum)	Tox50 (HepG2 cells)	Selectivity ratio F [2]	IC50 ([2]; Plasmodium falciparum)	HitlevelM ([1]; 2µM)	HitlevelF ([2]; 2µM)	Average inhibition male (%) [1, 23]	% inhibition male (individual replicates) R1 [1, 24]	% inhibition male (individual replicates) R3 [1, 25]	% inhibition male (individual replicates) R4 [1, 26]	IC50 [1]	Average inhibition female (%) [2, 23]	% inhibition female (individual replicates) R1 [2, 24]	% inhibition female (individual replicates) R3 [2, 25]	% inhibition female (individual replicates) R4 [2, 26]	IC50 [2]	further results
Cc1cc(Nc2ccncc2)n2nc(C)c(-c3ccc(Cl)cc3)c2n1 [TCMDC-124478]	68.63	950 nM	65.53 µM	6.55	> 10000 nM													inhibition at 2 µM [1, 3]: 95.5%; inhibition at 2 µM [1, 4]: 96.8%; inhibition at 2 µM [1, 5]: 90.6%; inhibition at 2 µM [1, 6]: 96.8%; inhibition at 2 µM [1, 7]: 98%; inhibition at 2 µM [2, 8]: 2.4%; inhibition at 2 µM [2, 9]: -1.3%; inhibition at 2 µM [2, 10]: -8.5%; inhibition at 2 µM [2, 11]: 24.2%; inhibition at 2 µM [2, 12]: -4.9%
Cc1sc2ncnc(Sc3nnc(N)s3)c2c1C [TCMDC-124542]	46.96	1410 nM	66.05 µM	89.35	740 nM	3	4											inhibition at 2 µM [1, 13]: 69.3%; inhibition at 2 µM [1, 14]: 92.1%; inhibition at 2 µM [1, 15]: 95.8%; inhibition at 2 µM [1, 16]: 87%; inhibition at 2 µM [1, 17]: 2.3%; inhibition at 2 µM [2, 18]: 86.8%; inhibition at 2 µM [2, 19]: 95.8%; inhibition at 2 µM [2, 20]: 96.9%; inhibition at 2 µM [2, 21]: 102%; inhibition at 2 µM [2, 22]: 52.6%
O=C(O)C(=O)O.Oc1c(CN2CCC(Cc3ccccc3)CC2)cc(Cl)c2cccnc12 [TCMDC-124594]	2.09		4.17 µM	3.66				92.4%	97.5%	93.3%	86.9%	2000 nM	49.8%	37.8%	58.8%	51.4%	1140 nM	
O=C(c1ccc([N+](=O)[O-])o1)N1CCC(Cc2ccc(C(F)(F)F)cc2)CC1 [TCMDC-124805]	70.69	400 nM	28.45 µM	64.48	440 nM													inhibition at 2 µM [1, 3]: 101%; inhibition at 2 µM [1, 4]: 98.9%; inhibition at 2 µM [1, 5]: 100%; inhibition at 2 µM [1, 6]: 102%; inhibition at 2 µM [1, 7]: 102%; inhibition at 2 µM [2, 8]: 55.8%; inhibition at 2 µM [2, 9]: 35.5%; inhibition at 2 µM [2, 10]: 62.7%; inhibition at 2 µM [2, 11]: 38.2%; inhibition at 2 µM [2, 12]: 86.7%
Cc1ccccc1OCC(O)CNC1CCC(NCC(O)COc2ccccc2C)CC1 (centres unmarked) [TCMDC-125142]	2.74		5.33 µM	3.94		4	1					1940 nM					1350 nM	Average inhibition male (%) [1, 27]: 76.7%; % inhibition male (individual replicates) R1 [1, 28]: 73.4%; % inhibition male (individual replicates) R3 [1, 29]: 61.7%; % inhibition male (individual replicates) R4 [1, 30]: 90.9%; Average inhibition female (%) [2, 27]: 34.1%; % inhibition female (individual replicates) R1 [2, 28]: 36.4%; % inhibition female (individual replicates) R3 [2, 29]: 18.2%; % inhibition female (individual replicates) R4 [2, 30]: 27.5%
Cc1ccc(-n2c(Sc3ncnc4sccc34)nnc2N2CCCC2)cc1 [TCMDC-125247]	192.28	380 nM	73.14 µM	296.87	250 nM	4	3											inhibition at 2 µM [1, 13]: 74.6%; inhibition at 2 µM [1, 14]: 86.9%; inhibition at 2 µM [1, 15]: 67.1%; inhibition at 2 µM [1, 16]: 80.2%; inhibition at 2 µM [1, 17]: 64.2%; inhibition at 2 µM [2, 18]: 63.5%; inhibition at 2 µM [2, 19]: 56.4%; inhibition at 2 µM [2, 20]: 85.8%; inhibition at 2 µM [2, 21]: 26.4%; inhibition at 2 µM [2, 22]: 85.4%
CCCC(N)C(=O)NC1CCN(c2c(F)c(N)c3c(=O)c(C(=O)O)cn4c3c2Oc2ccccc2-4)C1.Cl (centres unmarked) [TCMDC-125701]	2.29		2.99 µM	0.68				89.8%	87.0%	88.1%	95.7%	1310 nM	53.0%	43.9%	47.1%	70.9%	4430 nM	
S=C(NN=Cc1ccccn1)NC1CC2C=CC1C2 (centres unmarked) [TCMDC-125752]	0.29		0.14 µM	0.3				101.0%	99.9%	101.6%	102.9%	500 nM	59.8%	34.4%	45.5%	74.2%	480 nM	
CCC1CN2CCc3cc(OC)c(OC)cc3C2CC1CC1NCCc2cc(OC)c(OC)cc21.Cl (centres unmarked) [TCMDC-125849]		3530 nM	27.47 µM		750 nM													HitlevelM ([1]; 2µM, 24h preincubation): 2; inhibition at 2 µM ([1]; Plasmodium falciparum, 2µM, 24h preincubation with gametocytes prior to induction of gametogenesis, average of replicates, read-out: Average inhibition male (%)): 47.7%; inhibition at 2 µM ([1]; Plasmodium falciparum, 2µM, 24h preincubation with gametocytes prior to induction of gametogenesis, replicate R1, read-out: % inhibition male (individual replicates) R1): 38.6%; inhibition at 2 µM ([1]; Plasmodium falciparum, 2µM, 24h preincubation with gametocytes prior to induction of gametogenesis, replicate R2, read-out: % inhibition male (individual replicates) R2): 27.6%; inhibition at 2 µM ([1]; Plasmodium falciparum, 2µM, 24h preincubation with gametocytes prior to induction of gametogenesis, replicate R3, read-out: % inhibition male (individual replicates) R3): 59.3%; inhibition at 2 µM ([1]; Plasmodium falciparum, 2µM, 24h preincubation with gametocytes prior to induction of gametogenesis, replicate R4, read-out: % inhibition male (individual replicates) R4): 65.1%; HitlevelF ([2]; 2µM, 24h preincubation): 4; times more potent against females than males ([2]; PfDGFA female versus male gametocytes): 4.7; inhibition at 2 µM ([2]; Plasmodium falciparum, 2µM, 24h preincubation with gametocytes prior to induction of gametogenesis, average of replicates, read-out: Average inhibition female (%)): 93.3%; inhibition at 2 µM ([2]; Plasmodium falciparum, 2µM, 24h preincubation with gametocytes prior to induction of gametogenesis, replicate R1, read-out: % inhibition female (individual replicates) R1): 91%; inhibition at 2 µM ([2]; Plasmodium falciparum, 2µM, 24h preincubation with gametocytes prior to induction of gametogenesis, replicate R2, read-out: % inhibition female (individual replicates) R2): 79%; inhibition at 2 µM ([2]; Plasmodium falciparum, 2µM, 24h preincubation with gametocytes prior to induction of gametogenesis, replicate R3, read-out: % inhibition female (individual replicates) R3): 103%; inhibition at 2 µM ([2]; Plasmodium falciparum, 2µM, 24h preincubation with gametocytes prior to induction of gametogenesis, replicate R4, read-out: % inhibition female (individual replicates) R4): 100%
COc1ccc(CCNCCCCCCNCCc2ccc(Cl)c3ccccc23)cc1OC.Cl [TCMDC-131270]	2.16		4.03 µM	0.76				92.0%	90.1%		89.1%	1870 nM	44.5%	48.1%	32.3%	35.6%	5300 nM	
